For 20 compounds, pH, Ki and Activity results are on record in ChEMBL document CHEMBL5584355, “Harnessing Nitric Oxide-Donating Benzofuroxans for Targeted Inhibition of Carbonic Anhydrase IX in Cancer” (J Med Chem, 2024).

Series [1] is described as follows: Toxicity in female C57BL6/J mouse assessed as hematic pH at 10 mg/kg, ip administered daily for 2 weeks and measured 1 hr post last dose (reference value: 7.1). In kind it is organism-based. The settings on record: in vivo, 336 h.
The target of another series is Carbonic anhydrase 12 (Homo sapiens, UniProt O43570). In words: Inhibition of human recombinant CA12 by phenol red dye based stopped flow CO2 hydration assay.
Sequence of Carbonic anhydrase 12 (O43570 whole entry): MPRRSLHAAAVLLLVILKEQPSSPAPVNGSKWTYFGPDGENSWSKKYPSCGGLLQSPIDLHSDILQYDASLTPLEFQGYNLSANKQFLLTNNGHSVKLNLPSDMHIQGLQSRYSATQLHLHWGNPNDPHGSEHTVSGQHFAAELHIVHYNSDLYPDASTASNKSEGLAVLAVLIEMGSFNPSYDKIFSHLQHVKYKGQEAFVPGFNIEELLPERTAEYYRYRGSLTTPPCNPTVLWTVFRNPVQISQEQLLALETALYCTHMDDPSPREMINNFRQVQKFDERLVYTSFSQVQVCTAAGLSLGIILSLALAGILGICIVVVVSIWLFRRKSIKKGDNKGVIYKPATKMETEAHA
For the next series, the target named is Carbonic anhydrase 2 (Homo sapiens, UniProt P00918). In words: Inhibition of human recombinant CA2 by phenol red dye based stopped flow CO2 hydration assay.
The next series has as its target Carbonic anhydrase 9 (Homo sapiens, UniProt Q16790). In words: Inhibition of human recombinant CA9 by phenol red dye based stopped flow CO2 hydration assay.
The target of the next series is Carbonic anhydrase 1 (Homo sapiens, UniProt P00915). Briefly: Inhibition of human recombinant CA1 by phenol red dye based stopped flow CO2 hydration assay.
Sequence of Carbonic anhydrase 1 (P00915 whole entry): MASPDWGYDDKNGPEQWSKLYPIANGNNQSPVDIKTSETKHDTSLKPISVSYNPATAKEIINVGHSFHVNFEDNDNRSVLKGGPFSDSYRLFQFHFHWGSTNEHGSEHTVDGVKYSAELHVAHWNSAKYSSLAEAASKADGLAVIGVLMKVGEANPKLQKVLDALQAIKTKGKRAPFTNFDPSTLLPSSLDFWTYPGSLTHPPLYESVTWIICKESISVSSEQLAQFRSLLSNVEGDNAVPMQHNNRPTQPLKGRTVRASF
The test system of series [2] is HEK293. In words: Cytotoxicity against HEK293 cells assessed as inhibition of cell growth at 77 uM by celltiter-glo assay. The class given is toxicity, cell-based. The settings on record: human, hek293, 77 µM.
In series [3] the test system is HEK293. Briefly: Cytotoxicity against HEK293 cells assessed as inhibition of cell growth at 46 uM by celltiter-glo assay. The class given is toxicity, cell-based. The settings on record: human, hek293, 46 µM. (In general: Cellular ATP, detected with luciferase, serves as a proxy for viable cell number.)

For `NS(=O)(=O)c1cc(C(=O)O)c(NCc2ccco2)cc1Cl` [FUROSEMIDE], the pH in series [1] turned out to be 7.05.
Consider `NS(=O)(=O)c1ccc(CCNC(=O)c2ccc3c(c2)no[n+]3[O-])cc1`, for which the Ki at Carbonic anhydrase 12 was found to be 26.1 nM; at Carbonic anhydrase 2 it was 90.1 nM; at Carbonic anhydrase 9 it was 12.6 nM; on Carbonic anhydrase 1, 445 nM.
`NS(=O)(=O)c1ccc(O)c(NC(=O)c2ccc3c(c2)no[n+]3[O-])c1`: the Ki on Carbonic anhydrase 9 turned out to be 61.1 nM; at Carbonic anhydrase 1, 8450 nM.
For `NS(=O)(=O)c1ccc(CCN(CCc2ccccc2)C(=O)c2ccc3c(c2)no[n+]3[O-])cc1`, in that order: 14.9 nM and 831 nM.
As to `N#CCCN(CCc1ccc(S(N)(=O)=O)cc1)C(=O)c1ccc2c(c1)no[n+]2[O-]`, the Ki on Carbonic anhydrase 9 was determined as 20.3 nM.
With `NS(=O)(=O)c1ccc(CNC(=O)c2ccc3c(c2)no[n+]3[O-])cc1`, the Ki on Carbonic anhydrase 9 worked out at 37.9 nM; on Carbonic anhydrase 1 it was 83.1 nM.
With `NS(=O)(=O)c1ccc(CCN(Cc2ccc(F)cc2)C(=O)c2ccc3c(c2)no[n+]3[O-])cc1`, the Activity entry in the series on HEK293 [2] is listed as “Non-Toxic”.
`O=C(OCCOc1ccc2ccc(=O)oc2c1)c1ccc2c(c1)no[n+]2[O-]`: the values for the Ki at Carbonic anhydrase 9 and at Carbonic anhydrase 1 were 112 nM and above 10000 nM, respectively.
Regarding `O=C(O)c1ccc2c(c1)no[n+]2[O-]`, the Ki at Carbonic anhydrase 12 was 995 nM; at Carbonic anhydrase 2, 8730 nM; at Carbonic anhydrase 9, 2650 nM; at Carbonic anhydrase 1, above 10000 nM.
Take `NS(=O)(=O)c1ccc(NC(=O)c2ccc3c(c2)no[n+]3[O-])cc1`: the Ki at Carbonic anhydrase 9 is 69.7 nM; at Carbonic anhydrase 1 it was 792 nM.
`O=C(OCCCOc1ccc2oc(=O)ccc2c1)c1ccc2c(c1)no[n+]2[O-]`: the Ki on Carbonic anhydrase 9 was 48.5 nM.
With `O=C(OCCCOc1ccc2ccc(=O)oc2c1)c1ccc2c(c1)no[n+]2[O-]`, the Ki at Carbonic anhydrase 1 was above 10000 nM.
Consider `NS(=O)(=O)c1cccc(NC(=O)c2ccc3c(c2)no[n+]3[O-])c1`, for which the inhibition constant Ki turned out to be 41.5 nM on Carbonic anhydrase 9 and 7660 nM at Carbonic anhydrase 1.
Turning to `O=C(NCCOc1ccc2oc(=O)ccc2c1)c1ccc2c(c1)no[n+]2[O-]`, at Carbonic anhydrase 9, the Ki was 23.6 nM.
Regarding `O=C(NCCOc1ccc2ccc(=O)oc2c1)c1ccc2c(c1)no[n+]2[O-]`, the Ki on Carbonic anhydrase 1 is above 10000 nM.
For the compound `NS(=O)(=O)c1ccc(CCN(Cc2ccccc2)C(=O)c2ccc3c(c2)no[n+]3[O-])cc1`, the pH in series [1] is on record as 6.9. In the series with HEK293 [3], the Activity result is given as “Non-Toxic”. Besides, the Ki on Carbonic anhydrase 9 was determined as 10.4 nM; on Carbonic anhydrase 1 it was 618 nM.
Regarding `O=C(Oc1ccc2oc(=O)ccc2c1)c1ccc2c(c1)no[n+]2[O-]`, the Ki was 15.8 nM on Carbonic anhydrase 9 and above 10000 nM on Carbonic anhydrase 1.
On to `O=C(Oc1ccc2ccc(=O)oc2c1)c1ccc2c(c1)no[n+]2[O-]`, for which the Ki on Carbonic anhydrase 9 turned out to be 304 nM.
Consider `NS(=O)(=O)c1ccc(OC(=O)c2ccc3c(c2)no[n+]3[O-])cc1`, for which the Ki was found to be 38.7 nM on Carbonic anhydrase 9 and 736 nM at Carbonic anhydrase 1.
Regarding `NS(=O)(=O)c1ccc(CCN(Cc2ccco2)C(=O)c2ccc3c(c2)no[n+]3[O-])cc1`, the Ki on Carbonic anhydrase 9 was 23.1 nM; on Carbonic anhydrase 1, 602 nM.

By Ki is commonly meant a dissociation constant, usually derived from enzyme kinetics or from competition with a known ligand.
